Measurements from ChEMBL document CHEMBL3991601, “The target landscape of clinical kinase drugs” (Science, 2017).
Activity calls are given as the source filed them.

How the values were obtained:
[1] = target: T1, Cytochrome c1, heme protein, mitochondrial (Homo sapiens, UniProt P08574)
T1 sequence (P08574 whole entry): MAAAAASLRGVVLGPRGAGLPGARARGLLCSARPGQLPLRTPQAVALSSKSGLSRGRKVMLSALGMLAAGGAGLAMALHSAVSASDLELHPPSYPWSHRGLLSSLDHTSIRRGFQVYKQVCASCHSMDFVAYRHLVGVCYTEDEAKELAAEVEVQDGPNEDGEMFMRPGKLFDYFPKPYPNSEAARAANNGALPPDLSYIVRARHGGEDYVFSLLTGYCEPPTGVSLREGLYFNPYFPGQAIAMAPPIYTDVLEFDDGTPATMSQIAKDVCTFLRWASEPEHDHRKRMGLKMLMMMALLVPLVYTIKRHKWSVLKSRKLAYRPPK

[2] = target: DnaJ homolog subfamily A member 1 (Homo sapiens, UniProt P31689)
Chain of DnaJ homolog subfamily A member 1 (P31689 whole entry): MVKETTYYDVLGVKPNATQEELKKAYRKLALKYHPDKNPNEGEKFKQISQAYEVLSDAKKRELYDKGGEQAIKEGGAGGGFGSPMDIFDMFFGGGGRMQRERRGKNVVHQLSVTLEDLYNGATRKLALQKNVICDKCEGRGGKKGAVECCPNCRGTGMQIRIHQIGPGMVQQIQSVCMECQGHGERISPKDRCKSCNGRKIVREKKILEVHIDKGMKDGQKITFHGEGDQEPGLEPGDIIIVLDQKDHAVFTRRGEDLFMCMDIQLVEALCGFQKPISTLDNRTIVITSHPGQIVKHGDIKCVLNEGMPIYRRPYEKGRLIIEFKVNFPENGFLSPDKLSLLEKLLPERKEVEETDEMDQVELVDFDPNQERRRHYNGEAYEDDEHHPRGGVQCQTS

[3] = target: NADH dehydrogenase [ubiquinone] 1 alpha subcomplex subunit 13 (Homo sapiens, UniProt Q9P0J0)
Chain of NADH dehydrogenase [ubiquinone] 1 alpha subcomplex subunit 13 (Q9P0J0 whole entry, one chain of several): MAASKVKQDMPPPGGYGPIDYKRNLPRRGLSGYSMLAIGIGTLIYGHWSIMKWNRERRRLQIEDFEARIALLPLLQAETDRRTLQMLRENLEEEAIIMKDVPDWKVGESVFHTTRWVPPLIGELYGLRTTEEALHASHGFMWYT

[4] = target: T2, Serine/threonine-protein kinase Nek1 (Homo sapiens, UniProt Q96PY6)
T2 sequence (Q96PY6 whole entry): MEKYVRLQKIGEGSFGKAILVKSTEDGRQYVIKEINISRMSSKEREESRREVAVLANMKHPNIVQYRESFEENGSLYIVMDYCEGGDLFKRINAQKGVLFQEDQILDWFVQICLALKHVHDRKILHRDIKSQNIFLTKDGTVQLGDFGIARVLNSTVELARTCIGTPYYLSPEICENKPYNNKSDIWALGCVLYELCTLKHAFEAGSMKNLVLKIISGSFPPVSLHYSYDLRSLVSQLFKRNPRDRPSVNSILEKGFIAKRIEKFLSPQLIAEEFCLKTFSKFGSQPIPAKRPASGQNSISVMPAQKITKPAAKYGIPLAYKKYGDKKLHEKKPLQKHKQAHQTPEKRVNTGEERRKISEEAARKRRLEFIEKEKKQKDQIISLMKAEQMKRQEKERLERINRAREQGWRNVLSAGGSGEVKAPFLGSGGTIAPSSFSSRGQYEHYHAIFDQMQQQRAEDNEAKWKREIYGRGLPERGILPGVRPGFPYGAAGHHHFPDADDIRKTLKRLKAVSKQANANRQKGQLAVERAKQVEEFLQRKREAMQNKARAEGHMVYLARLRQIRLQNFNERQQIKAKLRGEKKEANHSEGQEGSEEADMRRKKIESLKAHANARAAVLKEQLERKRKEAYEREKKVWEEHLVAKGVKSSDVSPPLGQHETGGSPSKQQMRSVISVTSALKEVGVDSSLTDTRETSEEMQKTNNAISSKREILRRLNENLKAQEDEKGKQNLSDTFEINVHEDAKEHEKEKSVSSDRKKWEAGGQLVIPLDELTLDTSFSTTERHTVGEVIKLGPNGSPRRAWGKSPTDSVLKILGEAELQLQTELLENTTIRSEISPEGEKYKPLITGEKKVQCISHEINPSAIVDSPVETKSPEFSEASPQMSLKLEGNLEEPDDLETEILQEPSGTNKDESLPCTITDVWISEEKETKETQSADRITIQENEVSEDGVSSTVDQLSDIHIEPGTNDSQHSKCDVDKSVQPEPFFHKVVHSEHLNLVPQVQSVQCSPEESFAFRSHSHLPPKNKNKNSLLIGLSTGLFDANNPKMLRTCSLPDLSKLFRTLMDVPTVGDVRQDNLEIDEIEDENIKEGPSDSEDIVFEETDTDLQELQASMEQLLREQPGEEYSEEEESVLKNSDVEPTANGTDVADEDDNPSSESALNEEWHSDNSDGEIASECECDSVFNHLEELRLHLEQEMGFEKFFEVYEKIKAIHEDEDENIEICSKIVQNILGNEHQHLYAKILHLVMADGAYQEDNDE

[5] = target: T3, Glycogen phosphorylase, brain form (Homo sapiens, UniProt P11216)
T3 sequence (P11216 whole entry): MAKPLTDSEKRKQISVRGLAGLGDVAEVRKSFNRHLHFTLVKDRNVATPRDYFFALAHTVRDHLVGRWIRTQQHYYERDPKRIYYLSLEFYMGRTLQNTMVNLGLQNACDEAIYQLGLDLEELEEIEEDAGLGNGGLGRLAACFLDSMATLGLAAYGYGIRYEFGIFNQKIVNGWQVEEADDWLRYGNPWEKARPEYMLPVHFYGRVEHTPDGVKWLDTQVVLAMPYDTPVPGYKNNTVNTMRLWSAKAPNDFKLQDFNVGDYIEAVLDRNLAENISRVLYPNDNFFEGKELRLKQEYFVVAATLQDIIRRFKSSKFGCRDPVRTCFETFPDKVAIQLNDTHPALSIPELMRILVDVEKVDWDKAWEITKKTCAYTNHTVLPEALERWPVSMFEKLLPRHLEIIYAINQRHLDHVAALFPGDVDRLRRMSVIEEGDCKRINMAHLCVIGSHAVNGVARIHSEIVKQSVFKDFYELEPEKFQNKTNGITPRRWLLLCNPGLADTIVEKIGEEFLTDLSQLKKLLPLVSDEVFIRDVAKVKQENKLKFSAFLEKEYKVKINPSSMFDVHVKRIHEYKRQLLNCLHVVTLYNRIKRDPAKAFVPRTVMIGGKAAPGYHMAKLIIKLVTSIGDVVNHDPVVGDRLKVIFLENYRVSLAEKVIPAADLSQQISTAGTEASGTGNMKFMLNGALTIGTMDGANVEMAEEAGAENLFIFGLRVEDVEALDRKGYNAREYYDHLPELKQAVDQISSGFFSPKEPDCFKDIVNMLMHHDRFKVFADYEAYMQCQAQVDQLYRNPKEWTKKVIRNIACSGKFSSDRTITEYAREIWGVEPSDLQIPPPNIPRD

[6] = target: Serine/threonine-protein kinase SIK3 (Homo sapiens, UniProt Q9Y2K2)
Chain of Serine/threonine-protein kinase SIK3 (Q9Y2K2 whole entry): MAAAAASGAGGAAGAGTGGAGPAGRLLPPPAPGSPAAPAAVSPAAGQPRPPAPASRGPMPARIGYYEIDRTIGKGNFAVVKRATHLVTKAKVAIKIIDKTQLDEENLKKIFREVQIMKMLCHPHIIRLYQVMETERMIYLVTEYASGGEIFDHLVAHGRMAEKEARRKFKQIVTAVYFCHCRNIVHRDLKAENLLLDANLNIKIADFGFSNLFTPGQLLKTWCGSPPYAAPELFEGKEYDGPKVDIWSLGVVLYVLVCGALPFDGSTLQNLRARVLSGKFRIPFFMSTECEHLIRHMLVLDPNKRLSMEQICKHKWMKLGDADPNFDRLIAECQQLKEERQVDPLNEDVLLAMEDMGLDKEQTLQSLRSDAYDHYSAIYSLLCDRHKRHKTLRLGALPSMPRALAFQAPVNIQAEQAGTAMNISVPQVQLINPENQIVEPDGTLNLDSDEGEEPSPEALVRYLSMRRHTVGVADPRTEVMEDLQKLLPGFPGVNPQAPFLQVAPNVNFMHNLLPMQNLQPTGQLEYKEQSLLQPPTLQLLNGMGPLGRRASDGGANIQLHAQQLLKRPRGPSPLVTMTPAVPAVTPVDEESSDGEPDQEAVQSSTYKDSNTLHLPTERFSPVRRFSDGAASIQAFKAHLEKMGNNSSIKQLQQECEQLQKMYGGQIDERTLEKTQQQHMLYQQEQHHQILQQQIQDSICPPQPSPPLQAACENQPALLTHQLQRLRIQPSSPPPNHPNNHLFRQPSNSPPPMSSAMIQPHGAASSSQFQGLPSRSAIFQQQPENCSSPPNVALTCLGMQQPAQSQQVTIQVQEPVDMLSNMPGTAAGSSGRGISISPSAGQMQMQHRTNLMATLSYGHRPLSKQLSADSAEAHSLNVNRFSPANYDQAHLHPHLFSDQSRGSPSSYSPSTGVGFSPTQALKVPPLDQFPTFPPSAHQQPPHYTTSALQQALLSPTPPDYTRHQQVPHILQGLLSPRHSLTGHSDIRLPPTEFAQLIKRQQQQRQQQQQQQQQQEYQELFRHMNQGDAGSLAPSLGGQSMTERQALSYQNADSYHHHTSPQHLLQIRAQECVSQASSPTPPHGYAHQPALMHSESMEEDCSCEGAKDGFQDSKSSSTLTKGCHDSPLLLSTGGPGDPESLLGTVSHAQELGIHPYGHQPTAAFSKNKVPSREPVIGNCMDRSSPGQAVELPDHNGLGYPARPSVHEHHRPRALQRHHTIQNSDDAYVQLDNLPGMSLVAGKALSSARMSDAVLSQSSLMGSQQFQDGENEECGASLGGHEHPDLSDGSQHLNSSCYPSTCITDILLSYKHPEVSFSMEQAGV
Note: in the data inactive means no Kd found up to 30 µM.

Kd [1] | Kd [2] | Kd [3] | Kd [4] | Kd [5] | Kd [6] | SMILES
> 30 µM (inactive) | > 30 µM (inactive) | > 30 µM (inactive) | > 30 µM (inactive) | > 30 µM (inactive) | > 30 µM (inactive) | CNC(=O)CN1CCC(Oc2cc3c(Nc4cccc(Cl)c4F)ncnc3cc2OC)CC1 [SAPITINIB]
> 30 µM (inactive) | > 30 µM (inactive) | > 30 µM (inactive) | > 30 µM (inactive) | > 30 µM (inactive) | > 30 µM (inactive) | COc1cc2nccc(Oc3ccc(NC(=O)Nc4cc(C)on4)c(Cl)c3)c2cc1OC [TIVOZANIB]
> 30 µM (inactive) | > 30 µM (inactive) | > 30 µM (inactive) | > 30 µM (inactive) | > 30 µM (inactive) | > 30 µM (inactive) | CC(=O)Nc1cccc(-n2c(=O)n(C3CC3)c(=O)c3c(Nc4ccc(I)cc4F)n(C)c(=O)c(C)c32)c1 [TRAMETINIB]
> 30 µM (inactive) | > 30 µM (inactive) | > 30 µM (inactive) | > 30 µM (inactive) | > 30 µM (inactive) | > 30 µM (inactive) | CC(C)Nc1cc(-c2c[nH]c(C(=O)N[C@H](CO)c3cccc(Cl)c3)c2)c(Cl)cn1 [ULIXERTINIB]
> 30 µM (inactive) | > 30 µM (inactive) | > 30 µM (inactive) | > 30 µM (inactive) | > 30 µM (inactive) | > 30 µM (inactive) | CCCS(=O)(=O)Nc1ccc(F)c(C(=O)c2c[nH]c3ncc(-c4ccc(Cl)cc4)cc23)c1F [VEMURAFENIB]

The next lines start with the compound.

SMILES | Kd [1] | Kd [2] | Kd [3] | Kd [4] | Kd [5] | Kd [6]
CN1CCC(CNc2ccc3ncc(-c4cccc(OC(F)(F)F)c4)n3n2)CC1 [SGI-1776] | > 30 µM (inactive) | > 30 µM (inactive) | > 30 µM (inactive) | > 30 µM (inactive) | > 30 µM (inactive) | > 30 µM (inactive)
O=C(Nc1cccc(Cl)c1)Nc1ncc(CCNc2ncnc3ccsc23)s1 [SNS-314] | > 30 µM (inactive) | > 30 µM (inactive) | > 30 µM (inactive) | > 30 µM (inactive) | > 30 µM (inactive) | > 30 µM (inactive)
C[C@@H]1CN(Cc2ccc(F)cc2)[C@@H](C)CN1C(=O)c1cc2c(C(=O)C(=O)N(C)C)cn(C)c2cc1Cl [TALMAPIMOD] | > 30 µM (inactive) | > 30 µM (inactive) | > 30 µM (inactive) | > 30 µM (inactive) | > 30 µM (inactive) | > 30 µM (inactive)
CN1CCC(COc2cnc(-c3cccc(Cn4nc(-c5cccc(C#N)c5)ccc4=O)c3)nc2)CC1 [TEPOTINIB] | > 30 µM (inactive) | > 30 µM (inactive) | > 30 µM (inactive) | > 30 µM (inactive) | > 30 µM (inactive) | > 30 µM (inactive)
O=c1sn(-c2cccc3ccccc23)c(=O)n1Cc1ccccc1 [TIDEGLUSIB] | > 30 µM (inactive) | > 30 µM (inactive) | > 30 µM (inactive) | > 30 µM (inactive) | > 30 µM (inactive) | > 30 µM (inactive)
CN1N=C(N)c2cn([C@@H]3O[C@H](COP(=O)(O)O)[C@@H](O)[C@H]3O)c3ncnc1c23 [TRICIRIBINE PHOSPHATE] | > 30 µM (inactive) | > 30 µM (inactive) | > 30 µM (inactive) | > 30 µM (inactive) | > 30 µM (inactive) | > 30 µM (inactive)
CC[C@@H]1C(=O)N(C)c2cnc(Nc3ccc(C(=O)N[C@H]4CC[C@H](N5CCN(CC6CC6)CC5)CC4)cc3OC)nc2N1C(C)C [VOLASERTIB] | > 30 µM (inactive) | > 30 µM (inactive) | > 30 µM (inactive) | > 30 µM (inactive) | > 30 µM (inactive) | > 30 µM (inactive)
CCn1c(=O)c(-c2cc[nH]n2)cc2c(C)nc(N)nc21 [VOXTALISIB] | > 30 µM (inactive) | > 30 µM (inactive) | > 30 µM (inactive) | > 30 µM (inactive) | > 30 µM (inactive) | > 30 µM (inactive)
O=C(Nc1ccc(-c2ccnc(Nc3ccc(N4CCOCC4)cc3)n2)cc1)C1CCCN1 (centres undefined) [XL-019] | > 30 µM (inactive) | > 30 µM (inactive) | > 30 µM (inactive) | > 30 µM (inactive) | > 30 µM (inactive) | 0.206 µM (active)
